Results taken from PubChem BioAssay (NCI).
Several values for one entry are separate records, joined by “and”; a condition that tells them apart may be missing. Equal entries are not always repeated.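 96-well plates; 48 h exposure; 5 concentrations. Endpoints by linear interpolation between flanking doses. Not reached: highest tested concentration assigned. GI50 is the concentration that inhibits growth by half. At the TGI there is no net growth.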

Key:
Assay in all cases: NCI anticancer screen, dose series, 48 h
[1] = tested on: 786-0 renal
[2] = tested on: A498 renal
[3] = tested on: A549 NSCLC
[4] = tested on: ACHN renal
[5] = tested on: BT-549 breast
[6] = tested on: CAKI-1 renal
[7] = tested on: CCRF-CEM leukemia
[8] = tested on: COLO 205 colon
[9] = tested on: DU-145 prostate
[10] = tested on: EKVX NSCLC
[11] = tested on: HCC-2998 colon
[12] = tested on: HCT-116 colon
[13] = tested on: HCT-15 colon
[14] = tested on: HL-60(TB) leukemia
[15] = tested on: HOP-62 NSCLC
[16] = tested on: HOP-92 NSCLC
[17] = tested on: HS 578T breast
[18] = tested on: HT29 colon
[19] = tested on: IGROV1 ovarian
[20] = tested on: K-562 leukemia
[21] = tested on: KM12 colon
[22] = tested on: LOX IMVI melanoma
[23] = tested on: M14 melanoma
[24] = tested on: MALME-3M melanoma
[25] = tested on: MCF7 breast
[26] = tested on: MDA-MB-231 breast
[27] = tested on: MDA-MB-435
[28] = tested on: MDA-N
[29] = tested on: MOLT-4 leukemia
[30] = tested on: NCI-H226 lung
[31] = tested on: NCI-H23 lung
[32] = tested on: NCI-H460 lung
[33] = tested on: NCI-H522 lung
[34] = tested on: NCI/ADR-RES ovarian
[35] = tested on: OVCAR-3 ovarian
[36] = tested on: OVCAR-4 ovarian
[37] = tested on: OVCAR-5 ovarian
[38] = tested on: OVCAR-8 ovarian
[39] = tested on: PC-3 prostate
[40] = tested on: RPMI-8226 leukemia
[41] = tested on: RXF 393 renal
[42] = tested on: SF-268 CNS
[43] = tested on: SF-295 CNS
[44] = tested on: SF-539 CNS
[45] = tested on: SK-MEL-2 melanoma
[46] = tested on: SK-MEL-28 melanoma
[47] = tested on: SK-MEL-5 melanoma
[48] = tested on: SK-OV-3 ovarian
[49] = tested on: SN12C renal
[50] = tested on: SNB-19 CNS
[51] = tested on: SNB-75 CNS
[52] = tested on: SR leukemia
[53] = tested on: SW-620 colon
[54] = tested on: T-47D breast
[55] = tested on: TK-10 renal
[56] = tested on: U251 CNS
[57] = tested on: UACC-257 melanoma
[58] = tested on: UACC-62 melanoma
[59] = tested on: UO-31 renal
[60] = tested on: DLD-1 colon
[61] = tested on: DMS 114 small cell lung
[62] = tested on: DMS 273 small cell lung
[63] = tested on: HOP-18 NSCLC
[64] = tested on: KM20L2 colon
[65] = tested on: LXFL 529 NSCLC
[66] = tested on: M19-MEL melanoma
[67] = tested on: SNB-78 CNS

## CC1=C(/C=C/C(C)=C/C=C/C(C)=C/C(=O)Nc2ccc(O)cc2)C(C)(C)CCC1
[1]
  GI50: 1.72 µM
  TGI: 4.36 µM and 10.9 µM
[2]
  GI50: 1.96 µM
  TGI: 9.07 µM and 19.1 µM
[3]
  GI50: 2.43 µM
  TGI: 14.2 µM and 26.5 µM
[4]
  GI50: 4.79 µM
  TGI: 16.3 µM and 17.7 µM
[5]
  GI50: 0.826 µM
  TGI: 7.44 µM and 18.6 µM
[6]
  GI50: 3.87 µM
  TGI: 15.8 µM and 13.6 µM
[7]
  GI50: 0.238 µM
  TGI: 13.5 µM and 3.59 µM
[8]
  GI50: 1.58 µM
  TGI: 4.8 µM and 8.28 µM
[9]
  GI50: 2.93 µM
  TGI: 12.1 µM and 21.4 µM
[10]
  GI50: 5.14 µM
  TGI: 20.7 µM and 25.2 µM
[11]
  GI50: 2.12 µM
  TGI: 5.97 µM and 18 µM
[12]
  GI50: 2.05 µM
  TGI: 4.6 µM and 15.7 µM
[13]
  TGI: 17.9 µM and 25.2 µM
[14]
  GI50: 0.278 µM
  TGI: 1.31 µM and 9.51 µM
[15]
  TGI: 9.95 µM and 15.2 µM
[16]
  GI50: 1.77 µM
  TGI: 4.1 µM and 6.11 µM
[17]
  GI50: 6.25 µM
  TGI: 27.4 µM and 13.7 µM
[18]
  TGI: 7.6 µM and 14.9 µM
[19]
  GI50: 1.19 µM
  TGI: 3.68 µM and 4.91 µM
[20]
  GI50: 1.38 µM
  TGI: 4.28 µM and > 40.4 µM
[21]
  GI50: 1.58 µM
  TGI: 6.19 µM and 17.2 µM
[22]
  GI50: 0.588 µM
  TGI: 2.26 µM and 4.76 µM
[23]
  GI50: 4.05 µM
  TGI: 12.7 µM and 18.7 µM
[24]
  GI50: 2.1 µM
  TGI: 6.48 µM and 18.7 µM
[25]
  GI50: 1.4 µM
  TGI: 9.59 µM and 12.9 µM
[26]
  GI50: 1.79 µM
  TGI: 10.1 µM and 6.06 µM
[27]
  GI50: 1.9 µM
  TGI: 5.99 µM and 18.7 µM
[28]
  TGI: 8.35 µM
[29]
  GI50: 0.391 µM
  TGI: 2.11 µM and 5.53 µM
[30]
  GI50: 10.3 µM
  TGI: 23.9 µM and 16.7 µM
[31]
  GI50: 1.83 µM
  TGI: 5.41 µM and 5.3 µM
[32]
  GI50: 2.58 µM
  TGI: 9.48 µM and 25.2 µM
[33]
  GI50: 0.262 µM
  TGI: 0.787 µM and 2.82 µM
[34]
  GI50: 2.29 µM
  TGI: 7.07 µM and 18.4 µM
[35]
  GI50: 1.5 µM
  TGI: 3.13 µM and 7.54 µM
[36]
  GI50: 2.6 µM
  TGI: 9.53 µM and 14.8 µM
[37]
  GI50: 12.5 µM
  TGI: 26.8 µM and 24 µM
[38]
  GI50: 2.56 µM
  TGI: 8.48 µM and 10.2 µM
[39]
  GI50: 1.37 µM
  TGI: 4.61 µM and 12.7 µM
[40]
  GI50: 1.09 µM
  TGI: 8.9 µM and 9.14 µM
[41]
  TGI: 6.5 µM and 5.43 µM
[42]
  GI50: 1.52 µM
  TGI: 3.94 µM and 14.2 µM
[43]
  GI50: 0.932 µM
  TGI: 3.74 µM and 12.3 µM
[44]
  GI50: 0.355 µM
  TGI: 1.73 µM and 3.39 µM
[45]
  GI50: 4.17 µM
  TGI: 13.3 µM and 17.4 µM
[46]
  GI50: 2.87 µM
  TGI: 8.69 µM and 12.1 µM
[47]
  GI50: 2.1 µM
  TGI: 7.21 µM and 12 µM
[48]
  GI50: 2.82 µM
  TGI: 9.71 µM and 17.2 µM
[49]
  GI50: 1.61 µM
  TGI: 5.23 µM and 5.63 µM
[50]
  GI50: 4.83 µM
  TGI: 20.4 µM and 18.2 µM
[51]
  GI50: 1.81 µM
  TGI: 5.85 µM and 23.2 µM
[52]
  GI50: 2.53 µM and 1.33 µM
  TGI: 6.02 µM and 5.97 µM
[53]
  TGI: 13.7 µM and 44.5 µM
[54]
  GI50: 1.31 µM
  TGI: 9.24 µM and 15.5 µM
[55]
  GI50: 5.07 µM
  TGI: 15.5 µM and 35.4 µM
[56]
  GI50: 1.94 µM
  TGI: 7.79 µM and 33.3 µM
[57]
  GI50: 4.55 µM
  TGI: 17.4 µM and 24 µM
[58]
  TGI: 6.94 µM and 7.34 µM
[59]
  GI50: 1.17 µM
  TGI: 2.57 µM and 11.6 µM

## NCC(NC(=O)OCc1ccccc1)C(=O)O (stereo unspecified)
[1]
  TGI: > 50 µM
[2]
  TGI: > 50 µM
[3]
  TGI: > 50 µM
[4]
  TGI: > 50 µM
[6]
  TGI: > 50 µM
[7]
  TGI: > 50 µM
[8]
  TGI: > 50 µM
[60]
  TGI: > 50 µM
[61]
  TGI: > 50 µM
[62]
  TGI: > 50 µM
[10]
  TGI: > 50 µM
[11]
  TGI: > 50 µM
[12]
  TGI: > 50 µM
[13]
  TGI: > 50 µM
[14]
  TGI: > 50 µM
[63]
  TGI: > 50 µM
[15]
  TGI: > 50 µM
[16]
  TGI: > 50 µM
[18]
  TGI: > 50 µM
[19]
  TGI: > 50 µM
[20]
  TGI: > 50 µM
[21]
  TGI: > 50 µM
[64]
  TGI: > 50 µM
[22]
  TGI: > 50 µM
[65]
  TGI: > 50 µM
[23]
  TGI: > 50 µM
[66]
  TGI: > 50 µM
[24]
  TGI: > 50 µM
[29]
  TGI: > 50 µM
[30]
  TGI: > 50 µM
[31]
  TGI: > 50 µM
[32]
  TGI: > 50 µM
[33]
  TGI: > 50 µM
[35]
  TGI: > 50 µM
[36]
  TGI: > 50 µM
[37]
  TGI: > 50 µM
[38]
  TGI: > 50 µM
[40]
  TGI: > 50 µM
[42]
  TGI: > 50 µM
[43]
  TGI: > 50 µM
[44]
  TGI: > 50 µM
[45]
  TGI: > 50 µM
[46]
  TGI: > 50 µM
[47]
  TGI: > 50 µM
[48]
  TGI: > 50 µM
[49]
  TGI: > 50 µM
[50]
  TGI: > 50 µM
[51]
  TGI: > 50 µM
[67]
  TGI: > 50 µM
[53]
  TGI: > 50 µM
[55]
  TGI: > 50 µM
[56]
  TGI: > 50 µM
[57]
  TGI: > 50 µM
[58]
  TGI: > 50 µM
[59]
  TGI: > 50 µM
